Results taken from ChEMBL document CHEMBL5244207, “Phenanthrenes: A Promising Group of Plant Secondary Metabolites” (J Nat Prod, 2018).
Values after ≈ are worked out from the molar mass of the structure shown.

Assays:
BV-2 = experiment: Antiinflammatory activity in mouse BV2 cells assessed as reduction in LPS-induced nitric oxide production; format: functional, cell-based
[1] = Antioxidant activity assessed as DPPH radical scavenging activity; format: functional
SGC-7901 = experiment: Cytotoxicity against human SGC-7901 cells assessed as reduction in cell viability; format: functional, cell-based
Bel-7402 = experiment: Cytotoxicity against human Bel-7402 cells assessed as reduction in cell viability; format: functional, cell-based
HL-60 [2] = experiment: Cytotoxicity against human HL-60 cells assessed as reduction in cell viability by MTT assay; format: functional, cell-based
[3] = Inhibition of elastase (unknown origin); parameters: species or system Homo sapiens
RAW264.7 [4] = experiment: Antiinflammatory activity in mouse RAW 264.7 cells assessed as inhibition of LPS-induced nitric oxide production measured after 48 hrs by Griess reagent assay; format: functional, cell-based; conditions: RAW264.7, 48 h
Pichia kudriavzevii = experiment: Antifungal activity against Candida krusei assessed as inhibition of fungal growth measured after 48 hrs by CLSI based agar dilution method; format: functional, organism-based
RAW264.7 [5] = experiment: Antiinflammatory activity in mouse RAW264.7 cells assessed as reduction in LPS-induced nitric oxide production; format: functional, cell-based; conditions: Mus musculus, RAW264.7
HaCaT = experiment: Antiinflammatory activity against human HaCaT cells assessed as inhibition of PGE2 production; format: functional, cell-based
[6] = Antioxidant activity assessed as hydrogen peroxide scavenging activity; format: functional
[7] = Inhibition of H2O2-induced ROS production in human HaCaT cells; format: functional, cell-based
Staphylococcus aureus [8] = experiment: Antibacterial activity against Staphylococcus aureus assessed as inhibition of bacterial growth; format: functional, organism-based
[9] = tested on: Staphylococcus epidermidis; experiment: Antibacterial activity against Staphylococcus epidermidis assessed as reduction in bacterial growth; format: functional, organism-based
K562 = experiment: Cytotoxicity against human K562 cells assessed as reduction in cell viability; format: functional, cell-based
HL-60 [10] = experiment: Cytotoxicity against human HL-60 cells assessed as reduction in cell viability; format: functional, cell-based
A549 = experiment: Cytotoxicity against human A549 cells assessed as reduction in cell viability; format: functional, cell-based
Mus musculus [11] = experiment: Anxiolytic activity in mouse assessed as increase in time spent in open arm at 5 mg/kg, po measured after 60 mins by elevated plus maze test; format: functional; conditions: 1 h
Mus musculus [12] = experiment: Anxiolytic activity in mouse assessed as number of entries in open arm at 5 mg/kg, po measured after 60 mins by elevated plus maze test; format: functional; conditions: 1 h
Staphylococcus aureus [13] = experiment: Antibacterial activity against Staphylococcus aureus ATCC 25923 assessed as inhibition of bacterial growth; format: functional, organism-based
Staphylococcus aureus [14] = experiment: Antibacterial activity against Staphylococcus aureus ATCC 29213 assessed as inhibition of bacterial growth; format: functional, organism-based
Staphylococcus aureus [15] = experiment: Antibacterial activity against Staphylococcus aureus ATCC 43300 assessed as inhibition of bacterial growth; format: functional, organism-based
[16] = target: Cyclin-dependent kinase 1/cyclin B (Homo sapiens, UniProt P06493); experiment: Inhibition of CDK1/Cyclin B (unknown origin) in presence of ATP by scintillation counter analysis; format: protein-complex assay
RAW264.7 [17] = experiment: Antiinflammatory activity against mouse RAW264.7 cells assessed as inhibition of LPS-induced COX2 expression; format: functional, cell-based

COc1ccc2ccc3ccc(O[C@@H]4O[C@H](CO)[C@@H](O)[C@H](O)[C@H]4O)c(O)c3c2c1
IC50 (BV-2): 10.6 µg/mL
IC50 ([1]; read-out: IC50): 0.2 µM

COC1=CC(=O)C2=C(CCc3cccc(O)c32)C1=O [EPHEMERANTHOQUINONE B]
IC50 (SGC-7901; Homo sapiens, SGC-7901, read-out: IC50): 2.9 µg/mL
IC50 (Bel-7402): 1.8 µg/mL (≈ 7.02 µM)
IC50 (HL-60 [2]): 3 µM

Cc1c(C)c2c(c(C)c1O)CCC(C)(C(=O)O)O2 (stereo not given) [TROLOX]
IC50 ([1]; read-out: IC50): 11.7 µM

O=c1cc(N2CCOCC2)oc2c(-c3ccccc3)cccc12 [LY-294002]
IC50 [3]: 4.8 µM

C=Cc1c(C)c(O)cc2c1CCc1c-2ccc(O)c1C
IC50 (RAW264.7 [4]): 4.9 µM
IC50 [3]: 5.5 µM

COc1cc(O)c2c(c1Cc1ccc(O)cc1)CCc1cc(O)ccc1-2
IC50 [1]: 12.2 µg/mL

OC(Cn1cncn1)(Cn1cncn1)c1ccc(F)cc1F [FLUCONAZOLE]
IC50 (Pichia kudriavzevii): 32 µg/mL (≈ 104 µM)

O=c1c(O)c(-c2ccc(O)c(O)c2)oc2cc(O)cc(O)c12 [QUERCETIN]
IC50 (RAW264.7 [5]): 6.6 µM

COc1cc2c(cc1O)CCc1cc(O)cc(OC)c1-2
IC50 (BV-2): 19.4 µM
IC50 (HaCaT): 19.3 µM
IC50 ([1]; read-out: IC50): 9 µM
IC50 [6]: 40 nM
IC50 [7]: 9.4 µM

COc1cc(O)c2c(c1C)CCc1cc(O)c(C)cc1-2
IC50 (Staphylococcus aureus [8]): 12.5 µg/mL (≈ 46.2 µM)
IC50 [9]: 12.5 µg/mL (≈ 46.2 µM)

COc1cc(O)c2c(c1)CCc1cc(-c3c(OC)cc(O)c4c3CCc3cc(O)ccc3-4)c(O)cc1-2
IC50 (K562): 2.8 µM
IC50 (HL-60 [10]; hl-60): 4 µM
IC50 (A549): 1.2 µM
IC50 (SGC-7901; sgc-7901): 6.1 µM

COc1cc(O)c(-c2cc3c(cc2O)CCc2cc(OC)cc(O)c2-3)c(CCc2cccc(O)c2)c1
EC50 [1]: 55.9 µM

Oc1ccc(/C=C/c2cc(O)cc(O)c2)cc1 [RESVERATROL]
EC50 [1]: 21.2 µM
IC50 ([1]; read-out: IC50): 28.7 µM

COc1cc2c(c(OC)c1O)-c1ccc(O)cc1CC2 [FLAVANTHRIDIN]
IC50 [6]: 2000 nM

C=Cc1cc(O)cc2c1-c1ccc(O)c(C)c1CC2 [EFFUSOL]
IC50 (RAW264.7 [5]): 15.1 µM
Time (Mus musculus [11]): 75.5 s
Activity (Mus musculus [12]): 7.8

Oc1ccc2c(c1)CCc1cc(O)cc(O)c1-2
IC50 ([1]; read-out: IC50): 16.2 µM

COc1cc(O)c2c(c1)CCc1c-2ccc(OC)c1O
EC50 [1]: 27.7 µM
IC50 ([1]; read-out: IC50): 27.7 µM

CN1C(=O)CN=C(c2ccccc2)c2cc(Cl)ccc21 [DIAZEPAM]
Time (Mus musculus [11]): 111.9 s
Activity (Mus musculus [12]): 13.6

C=Cc1c(C)c(O)cc2c1-c1ccc(O)c(C)c1CC2
IC50 (RAW264.7 [4]): 3.1 µM
Time (Mus musculus [11]): 58.8 s
Activity (Mus musculus [12]): 6.6

COc1cc(O)c2c(ccc3cc(O)ccc32)c1-c1c(OC)cc(O)c2c1ccc1cc(O)ccc12
IC50 [1]: 9.4 µg/mL

COc1c(O)cc2ccc3c(OC)c(O)ccc3c2c1OC
IC50 ([1]; read-out: IC50): 12.9 µM

COc1cc(O)c2c(c1)CCc1cc(O)cc(O)c1-2
IC50 ([1]; read-out: IC50): 10.2 µM

COc1cc(O)c(-c2c(O)cc(OC)c3c2ccc2cc(O)ccc23)c2c1-c1ccc(O)cc1CC2 [CIRRHOPETALANTHRIN]
IC50 (Staphylococcus aureus [13]): 25 µg/mL (≈ 52 µM)
IC50 (Staphylococcus aureus [14]): 25 µg/mL (≈ 52 µM)
IC50 (Staphylococcus aureus [15]): 25 µg/mL (≈ 52 µM)

COc1cc(O)c2c(c1)CCc1cccc(O)c1-2
EC50 [1]: 10 µM
IC50 ([1]; read-out: IC50): 21.4 µM

CNC(=N)NCCC[C@H](N)C(=O)O [TILARGININE]
IC50 (BV-2): 16.3 µM

COc1cc(O)c2c(c1-c1c(OC)cc(O)c3c1ccc1cc(O)ccc13)CCc1cc(O)ccc1-2
IC50 (HL-60 [10]; Homo sapiens, HL-60, read-out: IC50): 7.3 µg/mL
IC50 [1]: 15.1 µg/mL

COc1cc2c(c(O)c1OC)CCc1cc(O)c(OC)c(OC)c1-2
IC50 [16]: 70 nM

COc1cc(O)cc2ccc3cccc(O)c3c12 [MOSCATIN]
IC50 ([1]; read-out: IC50): 9.2 µM

COc1c(O)cc2c3c1COc1cc(O)c(Cc4ccc(O)cc4)c(c1-3)CC2
IC50 (RAW264.7 [5]): 20.8 µM

COC1=C(OC)C(=O)c2c(ccc3cccc(O)c23)C1=O
IC50 (HL-60 [2]): 4.7 µM

COc1ccc(O)c(C(C)(C)C)c1.COc1ccc(O)cc1C(C)(C)C [BUTYLATED HYDROXYANISOLE]
IC50 [1]: 9.3 µg/mL

COc1cc(OC)c2c(ccc3cc(OC)c(O)cc32)c1
IC50 (RAW264.7 [17]): 1800 nM
